For experiment [1], the target named is Recombinant PRC2 (EZH2-Y641F) (Homo sapiens (Human), UniProt Q15910, Y641F). The experiment in a line: In vitro methyltransferase activity assay (LANCE Ultra). It counts as biochemical. As to conditions: 2.5 μM SAM/250 nM H3(1-50)K27me1, 3 hours, room temperature. As for the experimental part: Recombinant PRC2 (EZH2-Y641F) was purchased from Active motif, S-adenosyl-methionine (SAM) and Poly-L-lysine (PLL) were purchased from Sigma-Aldrich, and H3(1-50)K27me1 peptide was purchased from Cisbio. LANCEUltrasystem (Perkinelmer) was used for detection system. In the enzyme activity test, compounds to be tested were diluted by 8 gradient points in a ratio of 1:3, and added into each well in a reaction plate, and 100 ng recombinase was added, followed by a buffer [20 mM Tris pH8.5, 2 mM MgCl2, 0.01% Tween-20, 1 mM TCEP] containing 2.5 μM SAM/250 nM H3 (1-50)K27me1 premixtures. Enzymatic reaction thus began at room temperature. After reacted for 3 hours, a detection solution premixed with PLL, detection antibody and Ulight was added, and reacted for 1 hour at room temperature. The fluorescence value was then read on a Tecan infinite pro. IC50 was calculated by fitting in a four-factor model in the XLfit software.
Chain of Recombinant PRC2 (EZH2-Y641F) (Q15910 whole entry Y641F): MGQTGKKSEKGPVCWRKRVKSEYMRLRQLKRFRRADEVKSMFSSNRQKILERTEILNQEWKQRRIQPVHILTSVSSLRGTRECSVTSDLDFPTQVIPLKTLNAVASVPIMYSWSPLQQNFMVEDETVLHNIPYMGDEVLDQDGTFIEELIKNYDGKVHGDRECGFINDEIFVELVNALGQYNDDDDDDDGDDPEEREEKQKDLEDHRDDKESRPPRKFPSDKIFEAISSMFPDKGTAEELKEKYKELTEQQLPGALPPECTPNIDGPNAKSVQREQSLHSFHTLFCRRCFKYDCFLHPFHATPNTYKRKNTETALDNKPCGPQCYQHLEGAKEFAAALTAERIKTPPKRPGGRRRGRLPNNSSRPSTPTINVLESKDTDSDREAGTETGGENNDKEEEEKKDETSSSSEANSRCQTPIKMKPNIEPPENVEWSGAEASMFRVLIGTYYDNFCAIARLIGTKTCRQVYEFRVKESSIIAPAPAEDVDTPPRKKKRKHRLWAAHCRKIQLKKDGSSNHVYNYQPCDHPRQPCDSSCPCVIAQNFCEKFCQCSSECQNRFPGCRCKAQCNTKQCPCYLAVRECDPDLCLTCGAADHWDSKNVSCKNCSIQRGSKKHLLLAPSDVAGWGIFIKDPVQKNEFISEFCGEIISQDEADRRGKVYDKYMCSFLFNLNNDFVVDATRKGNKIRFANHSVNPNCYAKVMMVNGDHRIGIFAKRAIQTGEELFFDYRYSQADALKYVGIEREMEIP
Chain of Recombinant PRC2 (EZH2-Y641F) (O75530 whole entry partner): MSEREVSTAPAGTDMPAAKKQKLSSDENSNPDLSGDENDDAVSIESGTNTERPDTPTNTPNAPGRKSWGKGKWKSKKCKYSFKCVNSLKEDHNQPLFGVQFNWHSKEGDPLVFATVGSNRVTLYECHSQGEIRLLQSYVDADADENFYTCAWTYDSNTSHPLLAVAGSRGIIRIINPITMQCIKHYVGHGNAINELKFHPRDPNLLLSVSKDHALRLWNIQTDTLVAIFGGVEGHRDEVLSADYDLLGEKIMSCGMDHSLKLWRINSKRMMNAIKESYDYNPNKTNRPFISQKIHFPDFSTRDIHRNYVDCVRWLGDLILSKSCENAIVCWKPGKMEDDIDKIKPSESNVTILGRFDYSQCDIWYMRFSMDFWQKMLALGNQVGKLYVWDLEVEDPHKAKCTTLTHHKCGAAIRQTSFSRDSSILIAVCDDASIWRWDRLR
Chain of Recombinant PRC2 (EZH2-Y641F) (Q15022 whole entry partner): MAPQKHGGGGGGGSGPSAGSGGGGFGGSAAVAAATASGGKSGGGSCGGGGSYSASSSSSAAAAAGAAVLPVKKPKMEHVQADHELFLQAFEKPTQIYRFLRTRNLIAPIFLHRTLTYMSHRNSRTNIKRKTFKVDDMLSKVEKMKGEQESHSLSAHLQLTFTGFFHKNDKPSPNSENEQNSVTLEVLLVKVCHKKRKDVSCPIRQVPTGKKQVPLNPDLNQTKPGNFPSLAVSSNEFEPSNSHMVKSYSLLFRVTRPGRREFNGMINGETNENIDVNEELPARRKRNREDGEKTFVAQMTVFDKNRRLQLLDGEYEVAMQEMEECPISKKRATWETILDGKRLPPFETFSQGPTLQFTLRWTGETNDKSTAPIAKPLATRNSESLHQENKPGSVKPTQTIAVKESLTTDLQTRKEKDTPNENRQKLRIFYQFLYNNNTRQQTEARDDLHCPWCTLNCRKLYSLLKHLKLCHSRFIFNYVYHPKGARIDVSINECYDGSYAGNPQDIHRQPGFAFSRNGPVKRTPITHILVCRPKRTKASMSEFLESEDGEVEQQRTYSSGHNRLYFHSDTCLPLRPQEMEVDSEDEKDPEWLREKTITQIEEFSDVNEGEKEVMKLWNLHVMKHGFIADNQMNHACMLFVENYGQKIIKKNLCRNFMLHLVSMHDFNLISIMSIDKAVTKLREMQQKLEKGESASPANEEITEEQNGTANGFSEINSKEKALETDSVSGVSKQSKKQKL
Chain of Recombinant PRC2 (EZH2-Y641F) (Q09028 whole entry partner): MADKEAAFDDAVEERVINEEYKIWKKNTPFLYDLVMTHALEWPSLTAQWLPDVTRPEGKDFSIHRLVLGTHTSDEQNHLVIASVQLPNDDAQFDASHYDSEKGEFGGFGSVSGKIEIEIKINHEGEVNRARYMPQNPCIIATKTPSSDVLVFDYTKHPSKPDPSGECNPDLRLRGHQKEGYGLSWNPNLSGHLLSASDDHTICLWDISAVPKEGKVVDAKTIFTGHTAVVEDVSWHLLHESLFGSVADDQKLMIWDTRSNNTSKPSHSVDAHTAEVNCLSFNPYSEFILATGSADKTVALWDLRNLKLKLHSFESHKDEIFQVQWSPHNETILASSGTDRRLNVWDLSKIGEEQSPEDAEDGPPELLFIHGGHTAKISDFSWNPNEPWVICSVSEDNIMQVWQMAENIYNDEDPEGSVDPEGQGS
Chain of Recombinant PRC2 (EZH2-Y641F) (Q6ZN18 whole entry partner): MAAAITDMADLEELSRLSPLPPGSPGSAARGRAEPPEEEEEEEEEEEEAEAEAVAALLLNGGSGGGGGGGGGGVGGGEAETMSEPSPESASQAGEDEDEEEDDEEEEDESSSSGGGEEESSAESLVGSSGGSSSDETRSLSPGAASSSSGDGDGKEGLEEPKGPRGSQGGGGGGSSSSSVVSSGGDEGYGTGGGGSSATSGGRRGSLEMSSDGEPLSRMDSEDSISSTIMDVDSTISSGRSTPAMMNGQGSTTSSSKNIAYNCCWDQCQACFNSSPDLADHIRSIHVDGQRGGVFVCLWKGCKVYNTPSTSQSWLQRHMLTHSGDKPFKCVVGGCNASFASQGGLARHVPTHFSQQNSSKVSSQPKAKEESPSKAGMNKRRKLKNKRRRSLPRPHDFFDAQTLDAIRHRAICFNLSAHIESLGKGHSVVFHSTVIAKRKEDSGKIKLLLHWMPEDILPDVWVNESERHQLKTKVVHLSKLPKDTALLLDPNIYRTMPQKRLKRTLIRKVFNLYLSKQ
In general terms: In TR-FRET formats the signal depends on donor and acceptor labels being close together.

In the next experiment the test system is Pfeiffer cells. Briefly: Cell proliferation assay (Cell counting kit-8, 6 days). The following applies: Pfeiffer (CRL-2632), 6 days culture. The experiment is classed as cell-based. The method, then: The used cell lines Pfeiffer (CRL-2632), suDHL-6 (CRL-2959) and suDHL-10 (CRL-2963) were obtained from American Type Culture Collection (ATCC). All cell lines were cultured in RPMI-1640 medium (Gibco) containing 10% fetal bovine serum (Gibco). The cultured cells were harvested by centrifugation and the cell density was determined using a CounterStar cell counter. Appropriate number of cells were plated in a 96-well culture plate and incubated overnight. Compounds to be tested were diluted by 8 gradient points in a ratio of 1:3 and added into corresponding wells. After continuing to culture for 6 days, the number of viable cells was measured with Cell counting kit-8, and the absorbance value was read on Tecan infinite pro. The IC50 was calculated by fitting in a four-parameter model in the XLfit software.

A value given as a limit tells only on which side of the number the result lay.

A word on the IC50: it is the concentration that gives 50% inhibition. As to `CCN(c1cc(C(=O)NCc2c(C)cc(C)[nH]c2=O)c(C)c2c1cnn2C)C1CCOCC1` [D1, N-((4,6-dimethyl-2-oxo-1,2-dihydropyridin-3-yl)methyl)-4-(ethyl(tetrahydro-2H-pyran-4-yl)amino)-1,7-dimethyl-1H-indazole-6-carboxamide, reference compound], the IC50 was above 10000 nM in experiment [1] and above 10000 nM with Pfeiffer cells (Homo sapiens, 144 h).
For the molecule `CCN(c1c(C)c(C(=O)NCc2c(C)cc(C)[nH]c2=O)cc2c1cnn2C)[C@H]1CC[C@H](N(C)C)CC1` [P-14, N-((4,6-dimethyl-2-oxo-1,2-dihydropyridin-3-yl)methyl)-4-(((1R, 4R)-4-(dimethylamino)cyclohexyl)(ethyl)amino)-1,5-dimethyl-1H-indazole-6-carboxamide], the IC50 in experiment [1] is 5 nM; in the experiment on Pfeiffer cells, 212 nM.
On to `CCN(c1c(C)c(C(=O)NCc2c(C)cc(C)[nH]c2=O)cc2c1cnn2C)C1CCC(N(C)CCN(C)C)CC1` (stereo not drawn) [P-34], for which the IC50 is 26 nM in experiment [1] and 196 nM with Pfeiffer cells (Homo sapiens, 144 h).
The matching figures for `CCc1c(C(=O)NCc2c(C)cc(C)[nH]c2=O)cc2c(cnn2C)c1N(CC)C1CCOCC1` [P-17, N-((4,6-dimethyl-2-oxo-1,2-dihydropyridin-3-yl)methyl)-5-ethyl-4-(ethyl(tetrahydro-2H-pyran-4-yl)amino)-1-methyl-1H-indazole-6-carboxamide]: 8 nM and 36 nM.
The matching figures for `CCN(c1c(C)c(C(=O)NCc2c(C)cc(C)[nH]c2=O)cc2c1cnn2C(F)F)C1CCOCC1` [P-10, 1-(difluoromethyl)-N-((4,6-dimethyl-2-oxo-1,2-dihydropyridin-3-yl)methyl)-4-(ethyl(tetrahydro-2H-pyran-4-yl)amino)-5-methyl-1H-indazole-6-carboxamide]: 61 nM and 141 nM.
The matching figures for `CCN(c1ccc(CN(C)C)cc1)c1c(C)c(C(=O)NCc2c(C)cc(C)[nH]c2=O)cc2c1cnn2C` [P-43]: 33 nM and 123 nM.

The values above are taken from patent publication US11104664B2, “4,5,6-trisubstituted indazole derivatives, and preparation method and pharmaceutical use thereof” (SHANGHAI HAIYAN PHARMACEUTICAL TECHNOLOGY CO., LTD., priority 2016, dated 2021).
